Test results: patent publication US10844044B2 (Vanderbilt University, priority 2018, dated 2020)

What follows are compounds tested against WDR5 (Homo sapiens (Human), UniProt P61964) (assay: TR-FRET binding assay (displacement of 10mer-Thr-FAM probe from WDR5)). Details: not given.

**Q.** With `COc1cc(CNC(=O)c2cc(Cn3ccn(C)c3=N)cc(-c3ccc(F)cc3C(N)=O)c2)cc(OC)c1` [Example 152, N3′-(3,5-dimethoxybenzyl)-4-fluoro-5′-((2-imino-3-methyl-2,3-dihydro-1H-imidazol-1-yl)methyl)-[1,1′-biphenyl]-2,3′-dicarboxamide] as the compound, how does the Ki read?
**A.** Its Ki is 8.9 nM.

Same assay, conditions: read-out: Ki for Inhibition of WDR5 by TR-FRET assay

**Q.** With `Cc1ccnc(C(NC(=O)c2cc(Cn3ccn(C)c3=N)cc(-c3ncnc4c3CCCC4)c2)C2CC2)c1` (centres unmarked) [Example 95, N-(Cyclopropyl(4-methylpyridin-2-yl)methyl)-3-((2-imino-3-methyl-2,3-dihydro-1H-imidazol-1-yl)methyl)-5-(5,6,7,8-tetrahydroquinazolin-4-yl)benzamide] as the compound, how does the Ki read?
**A.** Its Ki is 20 nM.

**Q.** How did the Ki turn out when `Cc1cc([C@@H](NC(=O)c2cc(CN3CCSC3=N)cc(-c3ccc(F)cc3C#N)c2)C2CC2)ccc1F` [Example 316] was run?
**A.** The Ki was 0.91 nM.

**Q.** How did the Ki turn out when `Cc1cc([C@@H](NC(=O)c2cc(Cn3cc(F)ccc3=N)cc(-c3cn(C)nc3C(F)(F)F)c2)C2CC2)ccc1F` [Example 353, (S)—N-(cyclopropyl(4-fluoro-3-methylphenyl)methyl)-3-((5-fluoro-2-iminopyridin-1(2H)-yl)methyl)-5-(1-methyl-3-(trifluoromethyl)-1H-pyrazol-4-yl)benzamide] was run?
**A.** Its Ki is under 0.1 nM.

**Q.** With `Cc1cc([C@@H](NC(=O)c2cc(CN3C[C@H](C)OC3=N)cc(-c3cccnc3C(F)(F)F)c2)C2CC2)ccc1F` [Example 296, N—((S)-cyclopropyl(4-fluoro-3-methylphenyl)methyl)-3-(((S)-2-imino-5-methyloxazolidin-3-yl)methyl)-5-(2-(trifluoromethyl)pyridin-3-yl)benzamide] as the compound, how does the Ki read?
**A.** Its Ki is 7 nM.

**Q.** Which Ki does the source give for `Cc1cc([C@@H](NC(=O)c2cc(CN3CCSC3=N)cc(-c3cn(C)nc3C(F)(F)F)c2)C2CC2)ncc1F` [Example 326, (S)—N-(Cyclopropyl(5-fluoro-4-methylpyridin-2-yl)methyl)-3-((2-iminothiazolidin-3-yl)methyl)-5-(1-methyl-3-(trifluoromethyl)-1H-pyrazol-4-yl)benzamide] here?
**A.** The Ki was under 0.1 nM.

**Q.** For `Cc1cc([C@@H](NC(=O)c2cc(Cn3cccc(F)c3=N)cc(-c3cc(C(F)(F)F)nn3C)c2)C2CC2)ccc1F` [Example 345, (S)—N-(Cyclopropyl (4-fluoro-3-methylphenyl)methyl)-3-((3-fluoro-2-iminopyridin-1(2H)-yl)methyl)-5-(1-methyl-3-(trifluoromethyl)-1H-pyrazol-5-yl)benzamide], which Ki is on record?
**A.** Its Ki is 2.4 nM.

Same assay, conditions: read-out: Ki for Inhibition of WDR5 by TR-FRET assay; TR-FRET, 10mer-Thr-FAM probe, WDR5-His tag 2 nM, pH 7.0

**Q.** Which Ki does the source give for `Cn1ccn(Cc2cc(C(=O)N[C@@H](CC(=O)O)c3cccc(C(F)(F)F)c3)c(F)c(-c3ccc(F)cc3C(F)(F)F)c2)c1=N` [Example 148, (S)-3-(2,4′-Difluoro-5-((2-imino-3-methyl-2,3-dihydro-1H-imidazol-1-yl)methyl)-2′-(trifluoromethyl)-[1,1′-biphenyl]-3-carboxamido)-3-(3-(trifluoromethyl)phenyl)propanoic acid] here?
**A.** The Ki was 0.29 nM.

**Q.** Which Ki does the source give for `Cn1ccn(Cc2cc(C(=O)N[C@H](c3ccc(Cl)c(Cl)c3)C3CC3)cc(-c3ccc(F)cc3OC(F)F)c2)c1=N` [Example 150, (S)—N-(Cyclopropyl(3,4-dichlorophenyl)methyl)-2′-(difluoromethoxy)-4′-fluoro-5-((2-imino-3-methyl-2,3-dihydro-1H-imidazol-1-yl)methyl)-[1,1′-biphenyl]-3-carboxamide] here?
**A.** Its Ki is 0.13 nM.

**Q.** `Cc1cc([C@@H](NC(=O)c2cc(Cn3ccn(C)c3=N)cc(C3(C(F)(F)F)CC3)c2)C2CC2)ncc1F` [Example 218, (S)—N-(cyclopropyl(5-fluoro-4-methylpyridin-2-yl)methyl)-3-((2-imino-3-methyl-2,3-dihydro-1H-imidazol-1-yl)methyl)-5-(1-(trifluoromethyl)cyclopropyl)benzamide] was tested. Which Ki did it give?
**A.** The Ki was under 0.1 nM.

**Q.** For `N=c1occn1Cc1cc(C(=O)N[C@H](c2ccc(Cl)c(Cl)c2)C2CC2)cc(-c2cccnc2C(F)(F)F)c1` [Example 271, (S)—N-(Cyclopropyl(3,4-dichlorophenyl)methyl)-3-((2-iminooxazol-3(2H)-yl)methyl)-5-(2-(trifluoromethyl)pyridin-3-yl)benzamide], which Ki is on record?
**A.** Its Ki is 0.72 nM.

**Q.** `Cc1cc([C@@H](NC(=O)c2cc(Cn3ccn(C)c3=N)cc(-c3cnc(F)cc3C)c2)C2CC2)ccc1F` [Example 113, (S)—N-(Cyclopropyl(4-fluoro-3-methylphenyl)methyl)-3-(6-fluoro-4-methylpyridin-3-yl)-5-((2-imino-3-methyl-2,3-dihydro-1H-imidazol-1-yl)methyl)benzamide] was tested. Which Ki did it give?
**A.** Its Ki is over 33 nM.

**Q.** With `C[C@H](NC(=O)c1cc(Cn2ccoc2=N)cc(-c2cccnc2C(F)(F)F)c1)c1ncc(F)cn1` [Example 262, (S)—N-(1-(5-Fluoropyrimidin-2-yl)ethyl)-3-((2-iminooxazol-3(2H)-yl)methyl)-5-(2-(trifluoromethyl)pyridin-3-yl)benzamide] as the compound, how does the Ki read?
**A.** The Ki was over 33 nM.

**Q.** `Cc1ccnc(C(NC(=O)c2cc(Cn3ccoc3=N)cc(-c3ncccc3C(F)(F)F)c2)C2CC2)c1` (centres unmarked) [Example 237, N-(Cyclopropyl(4-methylpyridin-2-yl)methyl)-3-((2-iminooxazol-3(2H)-yl)methyl)-5-(3-(trifluoromethyl)pyridin-2-yl)benzamide] was tested. Which Ki did it give?
**A.** The Ki was 7.5 nM.

**Q.** Which Ki does the source give for `Cc1cc([C@@H](NC(=O)c2cc(Cn3ccn(C)c3=N)cc(-c3cn(CC(C)C)nc3C(F)(F)F)c2)C2CC2)ccc1F` [Example 165, (S)—N-(Cyclopropyl(4-fluoro-3-methylphenyl)methyl)-3-((2-imino-3-methyl-2,3-dihydro-1H-imidazol-1-yl)methyl)-5-(1-isobutyl-3-(trifluoromethyl)-1H-pyrazol-4-yl)benzamide] here?
**A.** The Ki was 0.14 nM.

**Q.** How did the Ki turn out when `COc1cc(CNC(=O)c2cc(Cn3ccn(C)c3=N)cc(-c3ccc(F)cc3C(F)(F)F)n2)cc(OC)c1` [Example 100, N-(3,5-Dimethoxybenzyl)-6-(4-fluoro-2-(trifluoromethyl)phenyl)-4-((2-imino-3-methyl-2,3-dihydro-1-imidazol-1-yl)methyl)picolinamide] was run?
**A.** Its Ki is 0.71 nM.

**Q.** How did the Ki turn out when `Cc1cc([C@@H](NC(=O)c2cc(Cn3ccoc3=N)cc(C3CC3)c2)C2CC2)ccc1F` [Example 265, (S)-3-cyclopropyl-N-(cyclopropyl(4-fluoro-3-methylphenyl)methyl)-5-((2-iminooxazol-3(2H)-yl)methyl)benzamide] was run?
**A.** The Ki was 0.78 nM.

**Q.** For `Cc1cc([C@@H](NC(=O)c2cc(Cn3ccn(C)c3=N)cc(-c3ccnc4c3CCC4)c2)C2CC2)ccc1F` [Example 136, (S)—N-(Cyclopropyl(4-fluoro-3-methylphenyl)methyl)-3-(6,7-dihydro-5H-cyclopenta[b]pyridin-4-yl)-5-((2-imino-3-methyl-2,3-dihydro-1H-imidazol-1-yl)methyl)benzamide], which Ki is on record?
**A.** Its Ki is under 0.1 nM.

**Q.** With `Cc1cc([C@@H](NC(=O)c2cc(Cn3ccn(C4CC4)c3=N)cc(-c3cn(CC(C)C)nc3C(F)(F)F)c2)C2CC2)ccc1F` [Example 163, (S)—N-(Cyclopropyl(4-fluoro-3-methylphenyl)methyl)-3-((3-cyclopropyl-2-imino-2,3-dihydro-1H-imidazol-1-yl)methyl)-5-(1-isobutyl-3-(trifluoromethyl)-1H-pyrazol-4-yl)benzamide] as the compound, how does the Ki read?
**A.** The Ki was 0.68 nM.

**Q.** How did the Ki turn out when `Cc1cc(F)ccc1-c1cc(Cn2ccn(C)c2=N)cc(C(=O)N[C@H](C)c2ccc(F)c(C(F)(F)F)c2)n1` [Example 360, (R)-6-(4-fluoro-2-methylphenyl)-N-(1-(4-fluoro-3-(trifluoromethyl)phenyl)ethyl)-4-((2-imino-3-methyl-2,3-dihydro-1H-imidazol-1-yl)methyl)picolinamide] was run?
**A.** Its Ki is 1 nM.

**Q.** `Cc1cc([C@@H](NC(=O)c2cc(Cn3ccn(C)c3=N)cc(N3CCC[C@H]3C(F)(F)F)c2)C2CC2)ccc1F` [Example 223] was tested. Which Ki did it give?
**A.** Its Ki is 1.3 nM.

**Q.** `COc1cc(CNC(=O)c2cc(Cn3ccn(C)c3=N)cc(-c3cccnc3C)c2)ccn1` [Example 41, 3-((2-Imino-3-methyl-2,3-dihydro-1H-imidazol-1-yl)methyl)-N-((2-methoxypyridin-4-yl)methyl)-5-(2-methylpyridin-3-yl)benzamide] was tested. Which Ki did it give?
**A.** Its Ki is 33 nM.

**Q.** For `Cc1cc([C@@H](NC(=O)c2cc(Cn3ccn(C)c3=N)cc(N3CCC[C@@H]3C(F)(F)F)c2)C2CC2)ccc1F` [Example 222, N—((S)-Cyclopropyl(4-fluoro-3-methylphenyl)methyl)-3-((2-imino-3-methyl-2,3-dihydro-1H-imidazol-1-yl)methyl)-5-((R)-2-(trifluoromethyl)pyrrolidin-1-yl)benzamide], which Ki is on record?
**A.** The Ki was 0.33 nM.

**Q.** For `COC(=O)CC(NC(=O)c1cc(Cn2ccn(C)c2=N)cc(-c2ccc(F)cc2C(F)(F)F)c1F)c1ccc(Cl)c(Cl)c1` (centres unmarked) [Example 110, Methyl 3-(3,4-dichlorophenyl)-3-(2,4′-difluoro-5-((2-imino-3-methyl-2,3-dihydro-1H-imidazol-1-yl)methyl)-2′-(trifluoromethyl)-[1,1′-biphenyl]-3-carboxamido)propanoate], which Ki is on record?
**A.** Its Ki is 0.1 nM.

**Q.** Which Ki does the source give for `Cc1cc(-c2cc(Cn3ccn(C)c3=N)cc(C(=O)NCc3ccc(Cl)c(C)c3)c2)ccn1` [Example 18, N-(4-Chloro-3-methylbenzyl)-3-((2-imino-3-methyl-2,3-dihydro-1H-imidazol-1-yl)methyl)-5-(2-methylpyridin-4-yl)benzamide] here?
**A.** Its Ki is 3.5 nM.

**Q.** `Cc1ccnc([C@@H](NC(=O)c2cc(Cn3ccn(C)c3=N)cc(OC(F)(F)F)c2)C2CC2)c1` [Example 149, (S)—N-(Cyclopropyl(4-methylpyridin-2-yl)methyl)-3-((2-imino-3-methyl-2,3-dihydro-1H-imidazol-1-yl)methyl)-5-(trifluoromethoxy)benzamide] was tested. Which Ki did it give?
**A.** Its Ki is 0.56 nM.

**Q.** With `COc1cc(CNC(=O)c2cc(Cn3ccn(C)c3=N)cc(OCC3CC3)c2)cc(OC)c1` [Example 178, 3-(Cyclopropylmethoxy)-N-(3,5-dimethoxybenzyl)-5-((2-imino-3-methyl-2,3-dihydro-1H-imidazol-1-yl)methyl)benzamide] as the compound, how does the Ki read?
**A.** The Ki was 3.3 nM.

**Q.** With `Cc1cc([C@@H](NC(=O)c2cc(Cn3ccn(C)c3=N)cc(-c3ncnc4c3CCCC4)c2)C2CC2)ccc1F` [Example 94, (S)—N-(Cyclopropyl(4-fluoro-3-methylphenyl)methyl)-3-((2-imino-3-methyl-2,3-dihydro-1H-imidazol-1-yl)methyl)-5-(5,6,7,8-tetrahydroquinazolin-4-yl)benzamide] as the compound, how does the Ki read?
**A.** The Ki was 36 nM.

**Q.** With `COc1cc(-c2cc(Cn3ccn(C)c3=N)cc(C(=O)NC(c3cc(C)ccn3)C3CC3)c2)ccn1` (centres unmarked) [Example 14] as the compound, how does the Ki read?
**A.** The Ki was 6 nM.
